The assay concerns P388 leukemia ip, CD2F1 mice, survival T/C. Put plainly: NCI In Vivo Anticancer Drug Screen. Data for tumor model P388 Leukemia (intraperitoneal) in CD2F1 (CDF1) mice. To be noted: endpoint: median survival time, higher = longer survival. The method, boiled down:
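Mice carrying the transplanted tumor received test compound or vehicle. Survival was recorded in each group, and the value is the treated-group measurement divided by that of the vehicle-treated control group.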

[1] abbreviates: dose: 50.0 mg/kg/injection, schedule: Q01DX009 (ip), vehicle: saline with Tween-80.
The mark [2] stands for this setting: dose: 100.0 mg/kg/injection, schedule: Q01DX009 (ip), vehicle: saline with Tween-80.
[3] abbreviates: dose: 200.0 mg/kg/injection, schedule: Q01DX009 (ip), vehicle: saline with Tween-80.
The mark [4] stands for this setting: dose: 50.0 mg/kg/injection, schedule: Q01DX005 (ip), vehicle: saline with Tween-80.
Where [5] appears, read: dose: 100.0 mg/kg/injection, schedule: Q01DX005 (ip), vehicle: saline with Tween-80.
Where [6] appears, read: dose: 60.0 mg/kg/injection, schedule: Q01DX005 (ip), vehicle: Klucel (hydroxypropylcellulose) (HPC).
Setting [7] is: dose: 50.0 mg/kg/injection, schedule: Q01DX005 (ip), vehicle: Klucel (hydroxypropylcellulose) (HPC).
The mark [8] stands for this setting: dose: 100.0 mg/kg/injection, schedule: Q01DX005 (ip), vehicle: Klucel (hydroxypropylcellulose) (HPC).
Setting [9] is: dose: 200.0 mg/kg/injection, schedule: Q01DX005 (ip), vehicle: Klucel (hydroxypropylcellulose) (HPC).
Setting [10] is: dose: 100.0 mg/kg/injection, schedule: Q01DX001 (ip), vehicle: saline with Tween-80.
Where [11] appears, read: dose: 200.0 mg/kg/injection, schedule: Q01DX001 (ip), vehicle: saline with Tween-80.
[12] abbreviates: dose: 400.0 mg/kg/injection, schedule: Q01DX001 (ip), vehicle: saline with Tween-80.
Where [13] appears, read: dose: 50.0 mg/kg/injection, schedule: Q01DX001 (ip), vehicle: saline with Tween-80.
The mark [14] stands for this setting: dose: 25.0 mg/kg/injection, schedule: Q01DX009 (ip), vehicle: saline with Tween-80.
The mark [15] stands for this setting: dose: 60.0 mg/kg/injection, schedule: Q01DX005 (ip), vehicle: saline with Tween-80.
Setting [16] is: dose: 120.0 mg/kg/injection, schedule: Q01DX005 (ip), vehicle: saline with Tween-80.
[17] abbreviates: dose: 240.0 mg/kg/injection, schedule: Q01DX005 (ip), vehicle: saline with Tween-80.

This passage reports T/C results from PubChem BioAssay AID330 (DTP/NCI, 2004).

Values joined by “and” are separate entries in the source; they are usually repeats but may differ in a detail not shown here. Equal values may be shown once. Toxic doses and inconclusive results are not listed.

On to `Cc1cc2c(c3ncccc13)OCN(Cc1ccc(Cl)cc1)C2`, for which the T/C is 94 % of control under setting [1], 95 % of control under setting [2] and 94 % of control under setting [3].
In the case of `CC1C(c2ccccc2)NC(c2ccccc2)C(C)C1(O)c1ccccc1` (stereo unspecified), the T/C is 107 % of control under setting [4] and 107 % of control under setting [5].
For the compound `Oc1cc2cccc[n+]2c2ccccc12`, the T/C runs as follows: (dose: 15.0 mg/kg/injection, schedule: Q01DX005 (ip), vehicle: Klucel (hydroxypropylcellulose) (HPC)) 99 % of control; (dose: 30.0 mg/kg/injection, schedule: Q01DX005 (ip), vehicle: Klucel (hydroxypropylcellulose) (HPC)) 101 % of control; under setting [6], 118 % of control and 97 % of control.
Consider `COc1cc(C2SCC(=O)N2c2nnc(C)s2)cc(OC)c1OC` (stereo unspecified), for which the T/C reads like this: under setting [7], 97 % of control; under setting [8], 89 % of control; under setting [9], 89 % of control.
For the compound `O=C1CSC(c2ccco2)N1CCN1C(=O)CSC1c1ccco1` (stereo unspecified), the T/C is 100 % of control (dose: 100.0 mg/kg/injection, schedule: Q04DX002 (ip), vehicle: saline with Tween-80); 98 % of control (dose: 200.0 mg/kg/injection, schedule: Q04DX002 (ip), vehicle: saline with Tween-80); 91 % of control (dose: 400.0 mg/kg/injection, schedule: Q04DX002 (ip), vehicle: saline with Tween-80).
For the compound `CNC(=S)P(c1ccccc1)c1ccccc1`, the T/C reads like this: under setting [7], 105 % of control; under setting [8], 96 % of control; under setting [9], 105 % of control.
In the case of `O=C(O)c1oc2ccccc2c1/C=C/c1ccccc1`, the T/C was 100 % of control under setting [1], 97 % of control under setting [2] and 100 % of control under setting [3].
Regarding `O=C(/C=C/c1ccccc1)c1c2ccccc2cc2ccccc12`, the T/C reads like this: under setting [10], 107 % of control; under setting [11], 100 % of control; under setting [12], 91 % of control.
For `CCOC(=O)C#Cc1cccc(C#CC(=O)OCC)c1`, the T/C is 98 % of control under setting [13]; 99 % of control and 118 % of control under setting [10]; 120 % of control under setting [11].
`CC1=C(C)C(=O)C(CCl)=[C-]C1=O.[Co].[c-]1[c-][c-][cH-][c-]1`: the T/C under setting [4] is 123 % of control.
In the case of `O=S(=O)(O)c1cc(N=C=S)ccc1/C=C/c1ccc(N=C=S)cc1S(=O)(=O)O`, the T/C (dose: 25.0 mg/kg/injection, schedule: Q01DX005 (ip), vehicle: saline) was 108 % of control and 110 % of control.
With `CCC1(O)CCC2C3CC=C4CCCCC4C3CCC21C` (stereo unspecified), the T/C (dose: 50.0 mg/kg/injection, schedule: Q01DX009 (ip), vehicle: saline) is 107 % of control; the T/C (dose: 100.0 mg/kg/injection, schedule: Q01DX009 (ip), vehicle: saline) is 100 % of control; the T/C (dose: 200.0 mg/kg/injection, schedule: Q01DX009 (ip), vehicle: saline) was 100 % of control.
On to `CCOC(=O)c1c[nH]c(=S)n(CCOC)c1=O`, for which the T/C under setting [14] is 92 % of control, the T/C under setting [1] was 108 % of control and the T/C under setting [2] was 115 % of control.
Consider `COC(=O)C1=NC(c2ccccc2)(c2ccccc2)C(C(=O)OC)=C(C(=O)OC)P(c2ccccc2)(c2ccccc2)=C1C(=O)OC`, for which the T/C was 88 % of control under setting [7], 92 % of control under setting [8] and 110 % of control under setting [9].
In the case of `CCN1CC2(COC)CCC(OC)C34C5CC6C(OC)CC(O)(C5C6O)C(O)(C(OC)C23)C14` (stereo unspecified), the T/C is, setting by setting: (dose: 3.75 mg/kg/injection, schedule: Q01DX005 (ip), vehicle: saline + alcohol) 96 % of control; (dose: 7.5 mg/kg/injection, schedule: Q01DX005 (ip), vehicle: saline + alcohol) 100 % of control; (dose: 15.0 mg/kg/injection, schedule: Q01DX005 (ip), vehicle: saline + alcohol) 102 % of control; (dose: 30.0 mg/kg/injection, schedule: Q01DX005 (ip), vehicle: saline + alcohol) 92 % of control; (dose: 60.0 mg/kg/injection, schedule: Q01DX005 (ip), vehicle: saline + alcohol) 99 % of control.
`COC(=O)C1=NC(=S)N=C(C(=O)OC)C12Cc1ccccc1C2=O`: the T/C is 92 % of control under setting [6]; 93 % of control (dose: 120.0 mg/kg/injection, schedule: Q01DX005 (ip), vehicle: Klucel (hydroxypropylcellulose) (HPC)); 102 % of control (dose: 240.0 mg/kg/injection, schedule: Q01DX005 (ip), vehicle: Klucel (hydroxypropylcellulose) (HPC)).
With `N#C/C(=C\c1ccccc1)C(=O)Nc1ccccc1`, the T/C reads like this: (dose: 6.25 mg/kg/injection, schedule: Q01DX009 (ip), vehicle: suspension in saline) 99 % of control; (dose: 12.5 mg/kg/injection, schedule: Q01DX009 (ip), vehicle: suspension in saline) 100 % of control; (dose: 25.0 mg/kg/injection, schedule: Q01DX009 (ip), vehicle: suspension in saline) 99 % of control; (dose: 50.0 mg/kg/injection, schedule: Q01DX009 (ip), vehicle: suspension in saline) 97 % of control.
`C/C(=N\NC(=O)c1ccccc1N)c1ccccc1O`: the T/C runs as follows: under setting [7], 100 % of control; under setting [8], 98 % of control; under setting [9], 100 % of control.
As for `C1CCC2OCCOCCOCCOCCOC2C1` (stereo unspecified), the T/C by setting is: (dose: 50.0 mg/kg/injection, schedule: Q01DX005 (ip), vehicle: saline) 95 % of control; (dose: 100.0 mg/kg/injection, schedule: Q01DX005 (ip), vehicle: saline) 95 % of control.
As to `CCOc1ccccc1NC(=O)/C(Cl)=C(\Cl)C(=O)O`, the T/C runs as follows: under setting [15], 109 % of control; under setting [16], 107 % of control.
Regarding `O=c1oc2c(cc1Cl)CCCC2`, the T/C runs as follows: under setting [7], 96 % of control; under setting [8], 101 % of control; under setting [9], 103 % of control.
As for `O=C(/C=C\c1ccc(O)c(O)c1)O[C@@H]1C[C@](O)(C(=O)O)C[C@@H](O)[C@H]1O`, the T/C runs as follows: (dose: 50.0 mg/kg/injection, schedule: Q04DX003 (ip), vehicle: saline) 100 % of control; (dose: 100.0 mg/kg/injection, schedule: Q04DX003 (ip), vehicle: saline) 100 % of control; (dose: 200.0 mg/kg/injection, schedule: Q04DX003 (ip), vehicle: saline) 105 % of control.
For `CCCC(C)(C(=O)Nc1ccc2nc(C)cc(N)c2c1)C(=O)Nc1ccc2nc(C)cc(N)c2c1`, the T/C is 94 % of control under setting [4] and 96 % of control under setting [5].
On to `CCOC(=O)c1c[nH]c2c(=O)c3cc(C)ccc3sc2c1=O`, for which the T/C is, setting by setting: under setting [13], 95 % of control; under setting [10], 93 % of control; under setting [11], 87 % of control.
Turning to `O=S1(=O)C=C(c2ccc3ccccc3c2)C1`, the T/C runs as follows: under setting [10], 105 % of control; under setting [11], 100 % of control; under setting [12], 96 % of control.
For `O=[N+]([O-])c1ccccc1-c1ccccc1N=Cc1ccccc1`, the T/C by setting is: (dose: 6.25 mg/kg/injection, schedule: Q01DX009 (ip), vehicle: saline with Tween-80) 96 % of control; (dose: 12.5 mg/kg/injection, schedule: Q01DX009 (ip), vehicle: saline with Tween-80) 106 % of control; under setting [14], 86 % of control.
Take `COc1ccc(C2COc3c(ccc(O)c3O)C2)cc1` (stereo unspecified): the T/C under setting [15] was 104 % of control, the T/C under setting [16] was 96 % of control and the T/C under setting [17] was 99 % of control.
Turning to `COc1ccc(Cc2c3cc(OC)c(OC)cc3cc[n+]2CC(=O)c2ccc(F)cc2)cc1OC`, the T/C reads like this: (dose: 25.0 mg/kg/injection, schedule: Q01DX005 (ip), vehicle: Klucel (hydroxypropylcellulose) (HPC)) 108 % of control; under setting [7], 100 % of control.
Consider `CC(C)N(C(=O)c1cccc(C(=O)N(C(C)C)C(C)C)n1)C(C)C`, for which the T/C under setting [15] was 101 % of control, the T/C under setting [16] is 95 % of control and the T/C under setting [17] is 95 % of control.
On to `O=C(O)C(S)C(S)C(=O)O` (stereo unspecified), for which the T/C (dose: 12.5 mg/kg/injection, schedule: Q01DX009 (ip), vehicle: other) is 102 % of control; the T/C (dose: 25.0 mg/kg/injection, schedule: Q01DX009 (ip), vehicle: other) was 108 % of control; the T/C (dose: 50.0 mg/kg/injection, schedule: Q01DX009 (ip), vehicle: other) was 103 % of control; the T/C (dose: 100.0 mg/kg/injection, schedule: Q01DX009 (ip), vehicle: other) is 94 % of control; the T/C (dose: 200.0 mg/kg/injection, schedule: Q01DX009 (ip), vehicle: other) was 90 % of control.
